Measured values from PubChem BioAssay (NCI).
Values joined by “and” are separate entries in the source; they are usually repeats but may differ in a detail not shown here. Equal entries are not always repeated.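 96-well plates; 48 h exposure; 5 concentrations. Endpoints by linear interpolation between flanking doses. Not reached: highest tested concentration assigned. GI50 is the concentration that inhibits growth by half. The concentration for full growth arrest is given as TGI.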

Legend:
Assay in all cases: NCI-60 cell line screen, 48 h
CAKI-1 renal = test system: CAKI-1 renal
EKVX NSCLC = test system: EKVX NSCLC
IGROV1 ovarian = test system: IGROV1 ovarian
LOX IMVI melanoma = test system: LOX IMVI melanoma
NCI-H226 lung = test system: NCI-H226 lung
OVCAR-5 ovarian = test system: OVCAR-5 ovarian
RXF 393 renal = test system: RXF 393 renal
SK-OV-3 ovarian = test system: SK-OV-3 ovarian
SNB-19 CNS = test system: SNB-19 CNS
UACC-62 melanoma = test system: UACC-62 melanoma

SMILES | TGI (CAKI-1 renal) | TGI (EKVX NSCLC) | TGI (IGROV1 ovarian) | TGI (LOX IMVI melanoma) | TGI (NCI-H226 lung) | TGI (OVCAR-5 ovarian) | TGI (RXF 393 renal) | TGI (SK-OV-3 ovarian) | TGI (SNB-19 CNS) | TGI (UACC-62 melanoma) | GI50 (CAKI-1 renal) | GI50 (EKVX NSCLC) | GI50 (IGROV1 ovarian) | GI50 (LOX IMVI melanoma) | GI50 (NCI-H226 lung) | GI50 (OVCAR-5 ovarian) | GI50 (RXF 393 renal) | GI50 (SK-OV-3 ovarian) | GI50 (SNB-19 CNS) | GI50 (UACC-62 melanoma)
Cc1c(C(Cc2ccccc2N(C)C(=O)/C=C\C(=O)O)c2c[nH]c3ccccc23)c2ccccc2n1C (configuration not stated) | 36 µM | 33.1 µM | 39.8 µM | 29.2 µM | 43 µM | 35.6 µM | 27.3 µM | 40.2 µM | 39.4 µM | 34.1 µM |  |  |  |  |  |  |  |  |  | 
Cn1cc(-c2ccc3nc(-c4ccc(CC(=O)Nc5cc(C(C)(C)C)no5)cc4)cnc3c2)cn1 | > 3 µM | > 3 µM | > 1.21 µM | > 3 µM | > 3 µM | > 3 µM | > 3 µM | 0.712 µM | > 3 µM | > 3 µM | 0.0102 µM | 0.143 µM | 0.013 µM | 0.036 µM | 0.0444 µM | 0.0828 µM | 0.0195 µM | 0.0938 µM | > 1.48 µM | 0.0297 µM
CN(C)CCNC(=O)c1cc2c3cc(Cl)ccc3[nH]c2c2ncccc12 | 19.6 µM | 12.7 µM | 4.34 µM | 2.92 µM | 16.7 µM | 27.4 µM | 4.28 µM | 24.4 µM | 19.7 µM | 3.77 µM | 3.52 µM | 2.8 µM | 1.52 µM | 1.51 µM | 4.04 µM | 11.9 µM | 1.74 µM | 6.89 µM | 4.52 µM | 1.94 µM
NS(=O)(=O)c1ccc(N(/C=C/C(=O)C(F)(F)F)CC(=O)c2ccc(F)cc2)cc1 | 56.9 µM | 87.2 µM | 52.5 µM | 34.6 µM | 40.9 µM | 74.4 µM | > 100 µM | > 100 µM | > 100 µM | 31.9 µM | 22.6 µM | 29.7 µM | 24.8 µM | 13.8 µM | 22.6 µM | 28.8 µM | 44 µM | 63.3 µM | 53.8 µM | 17.6 µM
CCCCn1c(=O)[nH]c(N)c([C@@H]2c3c([nH]c(=O)n(CCCC)c3=O)Oc3ccc4ccccc4c32)c1=O | 3.26 µM | 18.8 µM | 4.78 µM | 2.69 µM | 25.2 µM | 13.8 µM | 4.27 µM | 11.9 µM | 3.36 µM | 3.36 µM | 1.62 µM | 4.64 µM | 1.89 µM | 1.29 µM | 4.96 µM | 3.63 µM | 2.17 µM | 2.74 µM | 1.72 µM | 1.67 µM
CC[C@@]1(OP(=O)(O)O)C(=O)OCc2c1cc1n(c2=O)Cc2cc3ccccc3nc2-1 | 1.04 µM | > 100 µM | 4.51 µM and 5.58 µM | 0.585 µM | 1.16 µM and 0.66 µM |  | 3.52 µM and 0.81 µM | 7.98 µM and 6.46 µM | 39.3 µM | 0.404 µM and 1.48 µM |  | 2.13 µM | 0.377 µM |  | 0.0379 µM | 0.553 µM | 0.144 µM | 0.105 µM | 0.143 µM | 0.0269 µM
Cc1ccc(NC(=O)c2ccc(CN3CCN(C)CC3)cc2)cc1Nc1nc(-c2cccnc2)cs1 | 24.9 µM and > 10 µM | 29.8 µM and > 10 µM | 35.6 µM and > 10 µM | 5.8 µM and > 10 µM | 29.6 µM and > 10 µM | 31.1 µM and > 10 µM | 8.41 µM and 4 µM | 40 µM and > 10 µM | 29.7 µM and > 10 µM | 30.4 µM and > 10 µM | 11.6 µM and > 10 µM | 13.6 µM and > 10 µM | 15 µM and 7.66 µM | 2.47 µM and 3.06 µM | 7.94 µM and 4.12 µM | 16.6 µM and > 10 µM | 2.98 µM and 1.9 µM | 19.1 µM and > 10 µM | 14.4 µM and 6.37 µM | 15 µM and 8.56 µM
Cc1c(Cl)cccc1C(=O)Nc1nc2c(s1)CN(C(=O)Nc1cccc(C(F)(F)F)c1)CC2 | > 50 µM | > 50 µM | > 50 µM | 11 µM | 7.65 µM | > 50 µM | 0.349 µM | > 50 µM | > 50 µM | > 50 µM | 0.216 µM | 0.346 µM | 0.29 µM | 0.226 µM | 0.213 µM | 0.603 µM | 0.106 µM | 0.215 µM | 0.307 µM | 0.366 µM
Cc1cc(I)cc(CNCCN(C)C)c1O | > 100 µM | > 100 µM | > 100 µM | > 100 µM | > 100 µM | > 100 µM | > 100 µM | > 100 µM | > 100 µM | 39.2 µM | 50.1 µM | > 100 µM | 48.4 µM | 44.3 µM | > 100 µM | > 100 µM | 30.6 µM | > 100 µM | > 100 µM | 19.7 µM
Sc1cccc2cccnc12 | 14.5 µM | 12.9 µM | 12.6 µM | 11.1 µM | 8.83 µM | 17.7 µM | 8.28 µM | 13.8 µM | 17.3 µM | 7.25 µM | 1.67 µM | 1.31 µM | 0.541 µM | 0.57 µM | 1.61 µM | 4.1 µM | 1.4 µM | 3.04 µM | 1.82 µM | 0.529 µM
O=[N+]([O-])c1ccc(C2=NCCO2)cc1 | > 100 µM | > 100 µM | > 100 µM | > 100 µM | > 100 µM | > 100 µM | > 100 µM | > 100 µM | > 100 µM | > 100 µM | > 100 µM | > 100 µM | > 100 µM | > 100 µM | > 100 µM | > 100 µM | > 100 µM | > 100 µM | > 100 µM | > 100 µM
CCC(=C(c1ccc(OCCN2CCCCC2)cc1)c1ccc(OCCN2CCCCC2)cc1)c1ccc(Cl)cc1 | > 16.7 µM | > 16.7 µM | > 16.7 µM | 4.84 µM | > 16.7 µM | > 16.7 µM | 16.6 µM | > 16.7 µM | > 16.7 µM | 6.2 µM | 5.74 µM | > 16.7 µM | 12.9 µM | 2.31 µM | > 16.7 µM | > 16.7 µM | 3.08 µM | > 16.7 µM | 5.91 µM | 3.09 µM
O=C(N/N=C/c1ccc(Cl)cc1)c1ccc(NC(=O)c2ccccn2)cc1 | > 100 µM | > 100 µM | > 100 µM | > 100 µM | > 100 µM | > 100 µM | 63.3 µM | > 100 µM | > 100 µM | > 100 µM | 21.1 µM | 48.7 µM | 38.1 µM | 56.1 µM | 24.5 µM | 68 µM | 15.4 µM | 31 µM | 30 µM | 24.5 µM
